Publication PMC6104039 (Nature Communications, 2018)
“And” between values parts separate entries of the source, which are not always exact repeats. Identical values can stand only once.

Tested on: adipose tissue
Assay: Ceramide and SM species in epididymal adipose tissue
Type: in vivo, mice
Settings: for Ceramide 18:1/16:0 content of white adipose tissue / Ceramide 18:1/18:0 content of white adipose tissue / Ceramide 18:1/20:0 content of white adipose tissue / Ceramide 18:1/22:0 content of white adipose tissue / Ceramide 18:1/24:0 content of white adipose tissue / Ceramide 18:1/24:1 content of white adipose tissue / Ceramide 18:2/18:0 content of white adipose tissue / Ceramide 18:2/22:0 content of white adipose tissue / Ceramide 18:2/24:0 content of white adipose tissue / Ceramide 18:2/24:1 content of white adipose tissue / SM 34:1 content of white adipose tissue / SM 34:2 content of white adipose tissue / SM 36:1 content of white adipose tissue / SM 36:2 content of white adipose tissue / SM 38:1 content of white adipose tissue / SM 38:2 content of white adipose tissue / SM 40:1 content of white adipose tissue / SM 40:2 content of white adipose tissue / SM 42:1 content of white adipose tissue / SM 42:2 content of white adipose tissue / SM 42:3 content of white adipose tissue: individual values; for Ceramide 18:1/16:0 content of white adipose tissue / Ceramide 18:1/18:0 content of white adipose tissue / Ceramide 18:1/20:0 content of white adipose tissue / Ceramide 18:1/22:0 content of white adipose tissue / Ceramide 18:1/24:0 content of white adipose tissue / Ceramide 18:1/24:1 content of white adipose tissue / Ceramide 18:2/18:0 content of white adipose tissue / Ceramide 18:2/22:0 content of white adipose tissue / Ceramide 18:2/24:0 content of white adipose tissue / Ceramide 18:2/24:1 content of white adipose tissue: raw data Fig 3l; for SM 34:1 content of white adipose tissue / SM 34:2 content of white adipose tissue / SM 36:1 content of white adipose tissue / SM 36:2 content of white adipose tissue / SM 38:1 content of white adipose tissue / SM 38:2 content of white adipose tissue / SM 40:1 content of white adipose tissue / SM 40:2 content of white adipose tissue / SM 42:1 content of white adipose tissue / SM 42:2 content of white adipose tissue / SM 42:3 content of white adipose tissue: raw data Fig 3m
Description: Male C57BL6/J mice were obtained from the Animal Resources Centre in Perth (WA, Australia). Mice were housed at 22 ± 1 °C with a controlled 12:12 h light-dark cycle and had ad libitum access to water and either chow (8% calories from fat) or HFD (45% calories from fat)[66] for 4–6 weeks. […] Treatment was commenced at the same time as mice were randomised to dietary groups. The experiments were approved by the UNSW animal care and ethics committee (ACEC 15/48B), and followed guidelines issued by the National Health and Medical Research Council of Australia.
Lipids were extracted from frozen tissue samples or cells using a two-phase procedure with methyl-tert-butyl ether (MTBE)/methanol/water (10:3:2.5, v/v/v)[67]. Frozen tissue samples (~20 mg) were homogenized in 0.2 mL methanol containing 0.01% butylated hydroxytoluene (BHT), using a Precellys 24 homogenizer and Cryolys cooling unit (Bertin Technologies) with CK14 (1.4-mm ceramic) beads. The homogenates were spiked with an internal standard mixture comprising 5 nmole 19:0/19:0 phosphatidylcholine and 2 nmole each of 17:0/17:0 phosphatidylethanolamine, 17:0/17:0 phosphatidylserine, 17:0/17:0 d5-diacylglycerol, 17:0/17:0 phosphatidylglycerol, 14:0/14:0/14:0/14:0 cardiolipin, 18:1/12:0 SM, 18:1/17:0 ceramide, 18:1/12:0 glucosylceramide, 18:1/12:0 lactosylceramide, 18:1/12:0 sulfatide (all from Avanti Polar Lipids, USA), and 17:0/17:0/17:0 TAG (Cayman Chemical, USA), then transferred to 10 mL screw cap glass tubes. The homogenization tubes containing beads were then washed with another 0.3 mL methanol, and this wash was combined with the first methanol extract, after which 1.7 mL MTBE was added and the samples were sonicated in an ice-cold sonicating water bath (Thermoline Scientific, Australia) for 30 min. Phase separation was induced by addition of 417 µL of mass spectrometry-grade water followed by vortexing and centrifugation at 1000 × g for 10 min. The upper organic phase was collected into 5 mL glass tubes. The lower phase was re-extracted by adding 1 mL MTBE, 300 μL methanol, and 250 μL water. The organic phases were combined in the 5 mL glass tubes and dried under vacuum in a Savant SC210 SpeedVac (Thermo Scientific), then reconstituted in 500 μL methanol and stored at −20 °C until analysis.
Lipidomic profiling was performed on a QExactive Plus mass spectrometer with heated electrospray ionization (HESI) probe and a Dionex UltiMate 2000 LC pump (Thermo Fisher Scientific). Extracts were resolved on a 2.1 × 100 mm Waters Acquity C18 UPLC column (1.7 µm […]), using a binary gradient in which mobile phase A consisted of acetonitrile:water (60:40), 10 mM ammonium formate, 0.1% formic acid; and mobile phase B was isopropanol:acetonitrile (90:10), 10 mM ammonium formate, 0.1% formic acid[68]. The flow rate was 260 µL/min and column oven 55 °C. Data was acquired in full scan/data-dependent MS^2 mode (full scan resolution 70,000 FWHM, scan range 400–1200 m/z). The ten most abundant ions in each cycle were subjected to MS^2 using an isolation window of 1.4 m/z, collision energy 30 eV, resolution 17,500, maximum integration time 110 ms and dynamic exclusion window 10 s. An exclusion list of background ions was used based on a solvent blank. LipidSearch v4.1.30 software (ThermoFisher Scientific) was used for chromatogram alignment, peak identification and integration. Each lipid peak was manually verified for column elution time and characteristic fragment ions. Data were then exported to an Excel spreadsheet for normalisation of each lipid to its class-specific internal standard, and lipid concentrations were calculated relative to the internal standard.

## C[C@@](N)(CO)CCc1ccc(OCc2ccc(Cl)c(Cl)c2)cc1 [P053, (S)-2-amino-4-(4-(3,4-dichlorobenzyloxy)phenyl)-2-methylbutan-1-ol]
Chow + P053
  Ceramide 18:1/16:0 content of white adipose tissue: 10.929 and 4.227 and 17.193 and 8.156 and 14.726 and 6.210 and 17.172 and 6.636 and 12.272 and 15.061
  Ceramide 18:1/18:0 content of white adipose tissue: 2.114 and 0.846 and 3.339 and 1.520 and 2.375 and 1.130 and 3.918 and 1.468 and 2.718 and 2.056
  Ceramide 18:1/20:0 content of white adipose tissue: 1.814 and 0.867 and 3.626 and 1.453 and 2.395 and 1.178 and 2.617 and 1.217 and 2.593 and 1.998
  Ceramide 18:1/22:0 content of white adipose tissue: 4.127 and 2.201 and 7.564 and 3.535 and 5.536 and 3.049 and 7.800 and 3.557 and 5.828 and 4.572
  Ceramide 18:1/24:0 content of white adipose tissue: 6.125 and 3.020 and 12.234 and 6.320 and 9.940 and 4.064 and 14.430 and 5.790 and 10.017 and 7.844
  Ceramide 18:1/24:1 content of white adipose tissue: 10.504 and 6.110 and 22.417 and 11.780 and 19.731 and 7.603 and 26.592 and 10.551 and 18.107 and 16.532
  Ceramide 18:2/18:0 content of white adipose tissue: 1.183 and 0.312 and 1.256 and 0.618 and 1.358 and 0.382 and 1.268 and 0.527 and 0.931 and 1.219
  Ceramide 18:2/22:0 content of white adipose tissue: 2.177 and 0.918 and 3.608 and 1.721 and 2.577 and 1.375 and 2.989 and 1.482 and 2.309 and 2.564
  Ceramide 18:2/24:0 content of white adipose tissue: 4.508 and 1.750 and 7.166 and 3.688 and 5.287 and 2.715 and 7.269 and 3.296 and 4.451 and 6.052
  Ceramide 18:2/24:1 content of white adipose tissue: 4.820 and 2.648 and 9.228 and 4.871 and 7.660 and 3.147 and 9.518 and 3.932 and 5.805 and 6.812
  SM 34:1 content of white adipose tissue: 276.61 and 66.44 and 226.46 and 212.93 and 276.78 and 111.51 and 327.37 and 118.77 and 188.15 and 267.47
  SM 34:2 content of white adipose tissue: 23.85 and 2.33 and 6.66 and 4.19 and 4.83 and 3.15 and 5.28 and 2.34 and 3.58 and 6.77
  SM 36:1 content of white adipose tissue: 33.66 and 9.97 and 25.23 and 24.39 and 28.26 and 12.44 and 31.61 and 15.13 and 21.89 and 30.09
  SM 36:2 content of white adipose tissue: 12.60 and 1.84 and 8.68 and 8.41 and 12.18 and 3.45 and 12.76 and 4.74 and 5.44 and 12.73
  SM 38:1 content of white adipose tissue: 22.37 and 7.77 and 26.08 and 17.58 and 21.03 and 10.59 and 19.70 and 11.77 and 20.28 and 19.73
  SM 38:2 content of white adipose tissue: 5.83 and 1.41 and 5.52 and 4.51 and 5.60 and 2.81 and 4.44 and 2.01 and 3.84 and 6.42
  SM 40:1 content of white adipose tissue: 44.87 and 18.02 and 56.10 and 41.83 and 53.17 and 20.49 and 52.33 and 23.88 and 40.81 and 43.57
  SM 40:2 content of white adipose tissue: 12.98 and 4.14 and 11.80 and 8.16 and 10.55 and 6.16 and 10.26 and 5.10 and 7.07 and 11.44
  SM 42:1 content of white adipose tissue: 28.12 and 11.04 and 39.22 and 23.51 and 29.01 and 11.65 and 31.95 and 14.81 and 26.21 and 27.56
  SM 42:2 content of white adipose tissue: 81.27 and 33.26 and 95.54 and 83.35 and 95.85 and 36.01 and 109.30 and 44.61 and 71.06 and 85.15
  SM 42:3 content of white adipose tissue: 22.64 and 7.14 and 18.55 and 16.77 and 22.11 and 8.66 and 22.41 and 8.50 and 11.09 and 21.29
HFD + P053
  Ceramide 18:1/16:0 content of white adipose tissue: 7.201 and 8.054 and 16.149 and 4.934 and 4.539 and 15.378 and 9.982 and 4.818 and 11.537 and 7.369
  Ceramide 18:1/18:0 content of white adipose tissue: 2.978 and 2.646 and 5.343 and 1.908 and 1.464 and 4.498 and 3.784 and 2.039 and 3.490 and 2.759
  Ceramide 18:1/20:0 content of white adipose tissue: 1.960 and 1.699 and 2.742 and 0.969 and 1.134 and 2.311 and 2.304 and 0.962 and 2.130 and 1.825
  Ceramide 18:1/22:0 content of white adipose tissue: 2.875 and 3.855 and 6.655 and 3.344 and 2.629 and 5.839 and 6.468 and 2.833 and 3.815 and 4.292
  Ceramide 18:1/24:0 content of white adipose tissue: 2.389 and 3.918 and 5.983 and 4.215 and 2.773 and 8.001 and 8.331 and 4.355 and 4.168 and 5.733
  Ceramide 18:1/24:1 content of white adipose tissue: 6.096 and 8.629 and 13.174 and 7.744 and 4.866 and 14.789 and 13.116 and 7.511 and 9.181 and 8.543
  Ceramide 18:2/18:0 content of white adipose tissue: 1.491 and 1.389 and 1.897 and 0.793 and 0.611 and 2.474 and 2.012 and 0.838 and 2.141 and 1.309
  Ceramide 18:2/22:0 content of white adipose tissue: 1.850 and 2.082 and 3.075 and 1.861 and 1.560 and 3.228 and 3.861 and 1.939 and 2.443 and 2.309
  Ceramide 18:2/24:0 content of white adipose tissue: 2.470 and 3.270 and 4.398 and 3.698 and 2.656 and 6.741 and 6.951 and 4.253 and 4.048 and 5.078
  Ceramide 18:2/24:1 content of white adipose tissue: 3.997 and 4.831 and 5.433 and 4.596 and 3.171 and 8.097 and 7.476 and 4.878 and 5.777 and 4.939
  SM 34:1 content of white adipose tissue: 138.16 and 152.76 and 183.91 and 125.06 and 78.40 and 408.02 and 164.42 and 164.75 and 189.26 and 180.12
  SM 34:2 content of white adipose tissue: 3.94 and 4.36 and 5.23 and 3.24 and 2.75 and 11.91 and 3.96 and 4.10 and 5.05 and 4.63
  SM 36:1 content of white adipose tissue: 30.80 and 33.18 and 60.02 and 24.06 and 21.10 and 82.70 and 34.64 and 35.42 and 37.81 and 37.83
  SM 36:2 content of white adipose tissue: 13.65 and 13.63 and 9.26 and 9.31 and 4.59 and 33.15 and 15.13 and 9.69 and 16.44 and 14.20
  SM 38:1 content of white adipose tissue: 14.96 and 15.80 and 25.22 and 10.28 and 10.56 and 34.10 and 16.91 and 15.85 and 15.88 and 17.49
  SM 38:2 content of white adipose tissue: 5.67 and 4.70 and 6.95 and 2.89 and 2.82 and 9.23 and 2.88 and 2.78 and 5.06 and 4.54
  SM 40:1 content of white adipose tissue: 19.38 and 29.35 and 36.60 and 23.08 and 16.71 and 83.76 and 47.96 and 37.67 and 36.07 and 44.84
  SM 40:2 content of white adipose tissue: 7.44 and 8.09 and 11.71 and 6.74 and 5.23 and 19.76 and 11.68 and 7.96 and 9.66 and 10.63
  SM 42:1 content of white adipose tissue: 8.78 and 13.45 and 15.34 and 10.58 and 7.52 and 42.80 and 18.82 and 17.05 and 15.81 and 20.73
  SM 42:2 content of white adipose tissue: 28.15 and 38.15 and 51.68 and 31.28 and 20.55 and 119.48 and 50.63 and 47.22 and 48.80 and 50.51
  SM 42:3 content of white adipose tissue: 9.88 and 12.29 and 14.77 and 10.62 and 6.46 and 36.48 and 16.98 and 13.87 and 16.08 and 14.63
Chow or HFD
  C18 ceramide or SM and other ceramide or SM species in adipose tissue: did not significantly impact
